# Test results from patent publication US20210267989A1, “Novel Compounds for the Treatment, Alleviation or Prevention of Disorders Associated with Tau Aggregates” (AC Immune SA, priority 2018, published 2021).
# Key:
# [1] = target: T1, Tau K18 fragment aggregates (amino acids 244 to 372 of human Tau441) (Homo sapiens, UniProt P10636); test: Tau K18 disaggregation assay by ThT; format: biochemical; details: ThT fluorescence; 2 μM K18 aggregates, 30 minutes at RT
# T1 construct: encompassing amino acids 244 to 372 of the longest isoform (2N4R) of human Tau441; host or cells: bacteria
# T1 sequence (P10636 561-689): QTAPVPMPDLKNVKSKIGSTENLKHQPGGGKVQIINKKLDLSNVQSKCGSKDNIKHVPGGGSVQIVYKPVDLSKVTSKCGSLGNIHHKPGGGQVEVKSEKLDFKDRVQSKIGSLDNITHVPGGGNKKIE
# Description: Tau K18 Disaggregation Assay by ThT
# The Tau K18 fragment, encompassing amino acids 244 to 372 of the longest isoform (2N4R) of human Tau441, was expressed in bacteria and purified or bought from SignalChem. For the K18 disaggregation assay by ThT, 35 μM of recombinant K18 in PBS were aggregated for 24 hours at 37° C. in presence of 50 μM of heparin (Sigma-Aldrich) and 10 mM of DTT (Sigma-Aldrich) under shaking at 750 RPM. Compounds were dissolved in anhydrous dimethyl sulfoxide (DMSO, Sigma-Aldrich) to reach a concentration of 10 mM. K18 aggregates and serial dilutions of compounds were mixed together in PBS (volume 50 μL) to a final concentration of 2 μM of K18 aggregates and from 160 to 0.04 μM of compounds. The mixture was incubated for 30 minutes at room temperature (RT), then 40 μL of this mixture were transferred into a black 384-well plate assay (Perkin-Elmer) and mixed with 10 μL of 100 μM ThT in 250 mM glycine (both from Sigma-Aldrich) in PBS. Fluorescence (relative fluorescence units; RFU) was measured in monoplicate or duplicate on a Tecan reader (excitation: 440 nm; emission: 485 nm). Percentage of K18 disaggregation was then calculated and half maximal effective concentration (E050) was determined using GraphPad Prism version 5 (GraphPad Software) assuming a one-binding site fitting model.
# [2] = target: T2, Aggregated human Tau in human neuroblastoma cell line overexpressing full-length human Tau P301L (Homo sapiens, UniProt P10636, P618L); test: Reduction of intracellular Tau aggregation (AlphaLISA, aggregated Tau normalized to total Tau); format: cell-based; details: compound at 5 μM, 24 h, relative to DMSO-treated cells
# T2 construct: overexpressing the full-length form of human Tau carrying the P301L mutation; expressed in transfected cells; host or cells: human neuroblastoma cell line (G418 selection)
# T2 sequence (P10636 1-441 isoform P10636-8 P301L): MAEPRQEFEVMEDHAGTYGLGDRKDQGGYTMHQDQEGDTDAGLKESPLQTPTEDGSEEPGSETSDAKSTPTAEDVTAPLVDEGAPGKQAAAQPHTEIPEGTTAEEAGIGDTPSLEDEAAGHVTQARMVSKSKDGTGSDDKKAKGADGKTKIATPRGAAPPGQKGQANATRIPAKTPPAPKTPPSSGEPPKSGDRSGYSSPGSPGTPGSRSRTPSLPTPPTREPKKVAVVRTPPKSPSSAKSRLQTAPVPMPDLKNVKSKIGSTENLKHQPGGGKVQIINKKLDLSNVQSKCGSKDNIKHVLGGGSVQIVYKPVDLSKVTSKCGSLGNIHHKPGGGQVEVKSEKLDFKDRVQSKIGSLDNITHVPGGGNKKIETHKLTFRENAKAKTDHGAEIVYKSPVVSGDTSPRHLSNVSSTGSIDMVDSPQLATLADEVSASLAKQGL
# Description: Reduction of Intracellular Tau Aggregation
# A human neuroblastoma cell line overexpressing the full-length form of human Tau carrying the P301L mutation was cultured in complete medium [DMEM-F12 4.5 g/L Glutamax (Invitrogen), 15% FBS (Biochrom), 1% Peni/Strep (Invitrogen) supplemented with 2.5 μg/ml of G418 (Sigma-Aldrich) selection antibiotic]. The day before the experiment 5×10^5 cells/well were plated in a 6 well plate in 3 mL of complete medium. The next day, cells were incubated with DMSO or a compound of the present invention at 5 μM for additional 24 h at 37° C. After incubation, cells were trypsinized, resupsended in 100 μl of homogenization buffer [25 mM Tris-HCl pH 7.4, 150 mM NaCl, 1 mM EDTA, 1 mM EGTA containing phosphatase inhibitors (30 mM NaF, 0.2 mM Na3VO4, 1 nM okadaic acid, 1 mM PMSF, 5 mM Na4P2O7) and protease inhibitor cocktail (Complete™, Roche)], and then physically lysed with three rapid cycles of freezing and thawing. Samples were then directly tested in the AlphaLISA assay.
# Phosphorylated, aggregated, and total Tau were quantified by AlphaLisa using the following antibody pairs: • HT7-Acceptor beads+biotin (BT)-Tau13-Donor beads: Total Tau • HT7-Acceptor beads+biotin (BT)-HT7-Donor beads: Aggregated human Tau
# The Tau13 (Abcam) was biotinylated using EZ-Link® NHS-PEO Solid Phase biotinylation kit (Thermo Scientific), while the HT7-biotin was from a commercial source (Thermo Scientific).
# For each antibody pairs the concentration of acceptor beads and biotinylated antibodies was optimized. All samples were first tested in a dilution series in PBS in order to identify the linear range and optimal dilution for each sample and assay. For the final protocol, the following reagents were added in a 384-well white OptiPlate (PerkinElmer): • 5 μL of test diluted sample • 20 μL of the mixture biotin-mAb acceptor beads at the following final concentrations: • HT7-BT at 1.25 nM in combination with HT7-Acc beads at 10 μg/ml • Tau13-BT at 5 nM in combination with HT7-Acc beads at 2.5 μg/ml
# After incubation of this mixture at room temperature for 1 h, 25 μL of Streptavidin Donor beads (Perkin Elmer) at 25 μg/mL were added in the dark. Plates were analyzed after 30 min incubation using the EnSpire Alpha instrument and EnSpire Workstation version 3.00. Data for aggregated Tau were normalized to total Tau and then expressed as percentage of the DMSO-treated cells.
# [3] = target: T3, monomeric flTau (human Tau 2N4R; 441 amino acids) (Homo sapiens, UniProt P10636); test: Full-length Tau inhibition of aggregation assay by ThT (seeded with AD brain PHF); format: biochemical; details: 4 μM monomeric flTau + AD brain PHF 1:200, 72 h at 37° C.
# T3 construct: purchased Biotechne (USA); host or cells: E coli
# T3 sequence (P10636 1-441 isoform P10636-8): as the sequence (P10636 1-441 isoform P10636-8 P301L) above, with L301P counted along it
# Description: Full-Length Tau (fIT) Inhibiton of Aggregation Assay by ThT
# The isoform of human Tau (2N4R; 441 amino acids) was purchased from Biotechne (USA). The protein was expressed in bacteria E coli, purified and concentrated in PBS to a final concentration of 50 μM.
# To induce Tau aggregation, 4 μM of monomeric flTau was incubated for 72 hours at 37° C. under agitation cycles consisting of both orbital shaking and mixing function using the Hula Mixer (Life Technologies) with Tau paired-helical filaments (PHF) enriched from the post-mortem brain of one Alzheimer's disease (AD) patient obtained from an external source (Tissue Solutions) diluted 1:200. The enrichment procedure was modified from Jicha et al, 1997 (Journal of Neuroscience Research 48:128-132 (1997)) and Rostagno and Ghiso, 2009 (Current protocols in cell biology (2009), Chapter 3, Unit 3.33 3.33.1-33). […]
# To test the capability of compounds of this invention to inhibit Tau aggregation, serial dilution of compounds in DMSO were added to the monomeric flTau/PHF mix prior incubation. […] Fluorescence was measured in monoplicate on a Tecan reader Spark using filter (excitation at 448 nm/BW 7 nm, emission at 485 nm/BW 20 nm). A dose response type of curve was obtained out to two independent experiments each with technical duplicates and the IC50 was calculated using GraphPad Prism 7.03.
Structure (SMILES),EC50 [1],% Reduction of intracellular Tau aggregation [2],IC50 [3]
c1ccc2c3c([nH]c2c1)CN(c1ccc(N2CCOCC2)nc1)CC3 [Example 44],< 10 µM,+++ (+++ % > 50),0.39 µM
Cn1c2c(c3ccccc31)CCN(c1ccc(N3CCOCC3)nc1)C2 [Example 46],< 10 µM,++ (++ % 50 < x < 25),1.2 µM
